In patent US11999727B2 (Tango Therapeutics, Inc., priority 2020, dated 2024):
pIC50: −log10 of the molar value.

Columns and labels:
PRMT5 [1] = molecular target: T1, PRMT5 (Homo sapiens, UniProt O14744); test: PRMT5 biochemical IC50 assay with SAM as cofactor; settings: PRMT5, SAM as cofactor; read-out: SAM IC50
T1 construct: purchased Viva (custom protein)

PRMT5 [2] = molecular target: T1, PRMT5; test: PRMT5 biochemical IC50 assay with no cofactor; settings: PRMT5, no cofactor; read-out: No Cofactor/rel IC50
Source text: Table 1 indicates IC50 values (μM) against PRMT5 for exemplary compounds in the presence of SAM as cofactor, with no cofactor, and with MTA as cofactor, respectively (columns 4-6). […] Ki values can be calculated from the IC50 values as described in the Examples section. As detailed in the Examples section, for the assay performed in the presence of SAM, IC50=Ki×1.5 (Ki=IC50/1.5).

PRMT5 [3] = molecular target: T1, PRMT5; test: PRMT5 biochemical IC50 assay with MTA as cofactor; settings: PRMT5, MTA as cofactor; read-out: MTA IC50
[4] = system: HAP1 MTAP-intact cell line; test: SDMA in-cell western assay, HAP1 MTAP-intact; assay type: cell-based; settings: Homo sapiens, HAP1, SDMA in-cell western, HAP1 MTAP-intact; read-out: MTAP HAP1 intact IC50
Method in brief: (§1)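 Compounds were tested in HAP1 cells differing only in MTAP status (endogenous expression versus null). Cellular SDMA levels were then measured by in-cell western, giving an IC50 in each background.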

[5] = system: HAP1 MTAP-deleted cell line; test: SDMA in-cell western assay, HAP1 MTAP-deleted; assay type: cell-based; settings: for pIC50: Homo sapiens, HAP1, SDMA in-cell western, HAP1 MTAP-deleted, read-out: HAP1 MTAP deleted IC50; for MTAP intact/deleted ratio: IC50 ratio HAP1 MTAP-intact / HAP1 MTAP-deleted, SDMA in-cell western
Method in brief: as §1

[6] = system: HAP1 MTAP-deleted cell line; test: Viability assay, MTAP-deleted cell line; assay type: cell-based; settings: Homo sapiens, HAP1, viability assay, MTAP-deleted cell line; read-out: HAP1 MTAP deleted viability
Source text: Table 1 additionally indicates IC50 values in a viability assay for the MTAP-deleted cell line (column 10), indicating the effect of treatment with compound on cell survival.

T1 sequence (O14744 whole entry): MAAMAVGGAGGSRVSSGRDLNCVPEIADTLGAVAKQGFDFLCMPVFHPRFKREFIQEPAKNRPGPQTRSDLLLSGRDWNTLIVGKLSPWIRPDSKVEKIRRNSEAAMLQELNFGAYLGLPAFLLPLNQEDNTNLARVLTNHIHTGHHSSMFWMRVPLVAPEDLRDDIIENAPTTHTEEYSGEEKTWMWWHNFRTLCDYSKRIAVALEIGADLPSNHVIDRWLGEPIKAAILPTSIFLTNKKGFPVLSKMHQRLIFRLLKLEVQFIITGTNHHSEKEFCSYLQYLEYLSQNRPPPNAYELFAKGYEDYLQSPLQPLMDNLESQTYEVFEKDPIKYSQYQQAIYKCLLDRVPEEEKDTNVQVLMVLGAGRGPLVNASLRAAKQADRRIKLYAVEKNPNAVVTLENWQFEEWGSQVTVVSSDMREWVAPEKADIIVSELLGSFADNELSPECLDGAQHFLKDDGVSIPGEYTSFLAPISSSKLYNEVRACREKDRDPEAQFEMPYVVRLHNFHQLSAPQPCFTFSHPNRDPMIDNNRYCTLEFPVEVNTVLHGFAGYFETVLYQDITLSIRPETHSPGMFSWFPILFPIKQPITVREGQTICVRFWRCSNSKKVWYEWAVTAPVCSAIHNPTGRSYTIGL
T1 sequence (Q9BQA1 whole entry partner): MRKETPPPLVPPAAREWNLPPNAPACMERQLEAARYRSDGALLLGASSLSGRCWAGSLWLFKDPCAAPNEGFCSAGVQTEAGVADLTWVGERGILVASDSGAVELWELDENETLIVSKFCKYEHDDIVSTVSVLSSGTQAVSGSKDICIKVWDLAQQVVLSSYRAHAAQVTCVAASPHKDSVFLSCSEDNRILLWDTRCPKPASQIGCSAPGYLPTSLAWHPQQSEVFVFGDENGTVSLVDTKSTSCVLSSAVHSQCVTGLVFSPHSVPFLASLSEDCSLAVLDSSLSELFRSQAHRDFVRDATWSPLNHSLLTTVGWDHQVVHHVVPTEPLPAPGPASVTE

SMILES	pIC50 (PRMT5 [1])	pIC50 (PRMT5 [2])	pIC50 (PRMT5 [3])	pIC50 [4]	pIC50 [5]	MTAP intact/deleted ratio [5]	pIC50 [6]
COc1ccc([C@@H]2CC[C@@H](C)CN2C(=O)C(=O)Nc2cncc(C(N)=O)c2)cc1F (racemic) [Compound 208, rac-5-{2-[(2R,5S)-2-(3-Fluoro-4-methoxyphenyl)-5-methylpiperidin-1-yl]-2-oxoacetamido}pyridine-3-carboxamide]	6.30 to 7.30	6.30 to 7.30	> 7.30	< 6.00	6.00 to 7.00	A (an IC50 ratio greater than or equal to 10 fold)	5.00 to 6.00
CNc1ccc([C@@H]2CC[C@@H](C)CN2C(=O)C(=O)Nc2cncc(C(N)=O)c2)cn1 (racemic) [Compound 209, rac-5-{2-[(2R,5S)-5-Methyl-2-[6-(methylamino)pyridin-3-yl]piperidin-1-yl]-2-oxoacetamido}pyridine-3-carboxamide]	6.30 to 7.30	6.30 to 7.30	> 7.30	< 6.00	> 7.00	A (an IC50 ratio greater than or equal to 10 fold)	5.00 to 6.00
C[C@@H]1CC[C@@H](c2ccc(Cl)cc2)N(C(=O)C(=O)Nc2cncc(C(N)=O)c2)C1 (racemic) [Compound 212, rac-5-[[2-[(2S,5R)-2-(4-chlorophenyl)-5-methyl-1-piperidyl]-2-oxo-acetyl]amino]pyridine-3-carboxamide]	6.30 to 7.30	6.30 to 7.30	> 7.30	< 6.00	> 7.00	A (an IC50 ratio greater than or equal to 10 fold)	5.00 to 6.00
C[C@@H]1CC[C@@H](c2ccc(CN3CCOCC3)cc2)N(C(=O)C(=O)Nc2cncc(C(N)=O)c2)C1 (racemic) [Compound 213]	6.30 to 7.30	6.30 to 7.30	> 7.30	< 6.00	6.00 to 7.00	A (an IC50 ratio greater than or equal to 10 fold)	< 5.00
COc1cccc([C@@H]2CC[C@@H](C)CN2C(=O)C(=O)Nc2cncc(C(N)=O)c2)c1 (racemic) [Compound 214, rac-5-{2-[(2R,5S)-2-(3-Methoxyphenyl)-5-methylpiperidin-1-yl]-2-oxoacetamido}pyridine-3-carboxamide]	6.30 to 7.30	6.30 to 7.30	> 7.30	< 6.00	> 7.00		5.00 to 6.00
Cc1cccc2cc([C@@H]3CC[C@@H](C)CN3C(=O)C(=O)Nc3cncc(C(N)=O)c3)cnc12 (racemic) [Compound 215, rac-5-{2-[(2R,5S)-5-Methyl-2-(8-methylquinolin-3-yl)piperidin-1-yl]-2-oxoacetamido}pyridine-3-carboxamide]	< 6.30	< 6.30	6.30 to 7.30	< 6.00	< 6.00	B (an IC50 ratio greater than or equal to 3 fold but lower than 10 fold)	< 5.00
Cc1cnn(-c2ccc([C@@H]3CC[C@@H](C)CN3C(=O)C(=O)Nc3cncc(C(N)=O)c3)cc2)c1 (racemic) [Compound 218, rac-5-{2-[(2R,5S)-5-Methyl-2-[4-(4-methyl-11H-pyrazol-1-yl)phenyl]piperidin-1-yl]-2-oxoacetamido}pyridine-3-carboxamide]	6.30 to 7.30	6.30 to 7.30	> 7.30	< 6.00	> 7.00	A (an IC50 ratio greater than or equal to 10 fold)	5.00 to 6.00
C[C@@H]1CC[C@@H](c2ccc(C(N)=O)cc2)N(C(=O)C(=O)Nc2cncc(C(N)=O)c2)C1 (racemic) [Compound 220, rac-5-{2-[(2R,5S)-2-(4-Carbamoylphenyl)-5-methylpiperidin-1-yl]-2-oxoacetamido}pyridine-3-carboxamide]	6.30 to 7.30	6.30 to 7.30	> 7.30	< 6.00	6.00 to 7.00	A (an IC50 ratio greater than or equal to 10 fold)	< 5.00
C[C@@H]1CC[C@@H](c2ccnc(C(F)(F)F)c2)N(C(=O)C(=O)Nc2cncc(C(N)=O)c2)C1 (racemic) [Compound 221, rac-5-{2-[(2R,5S)-5-Methyl-2-[2-(trifluoromethyl)pyridin-4-yl]piperidin-1-yl]-2-oxoacetamido}pyridine-3-carboxamide]	6.30 to 7.30	6.30 to 7.30	6.30 to 7.30	< 6.00	6.00 to 7.00	A (an IC50 ratio greater than or equal to 10 fold)	< 5.00
COc1cc([C@@H]2CC[C@@H](C)CN2C(=O)C(=O)Nc2cncc(C(N)=O)c2)ccc1F (racemic) [Compound 222, rac-5-{2-[(2R,5S)-2-(4-Fluoro-3-methoxyphenyl)-5-methylpiperidin-1-yl]-2-oxoacetamido}pyridine-3-carboxamide]	6.30 to 7.30	6.30 to 7.30	> 7.30	< 6.00	6.00 to 7.00	A (an IC50 ratio greater than or equal to 10 fold)	5.00 to 6.00
COc1cc([C@@H]2CC[C@@H](C)CN2C(=O)C(=O)Nc2cncc(C(N)=O)c2)cnc1C(F)(F)F (racemic) [Compound 223, rac-5-{2-[(2R,5S)-2-[5-Methoxy-6-(trifluoromethyl)pyridin-3-yl]-5-methylpiperidin-1-yl]-2-oxoacetamido}pyridine-3-carboxamide]	< 6.30	< 6.30	6.30 to 7.30	< 6.00	< 6.00	C (an IC50 ratio of less than 3 fold)	< 5.00
C[C@@H]1CC[C@@H](c2ccc(N)nc2)N(C(=O)C(=O)Nc2cncc(C(N)=O)c2)C1 (racemic) [Compound 224, rac-5-{2-[(2R,5S)-2-(6-Aminopyridin-3-yl)-5-methylpiperidin-1-yl]-2-oxoacetamido}pyridine-3-carboxamide]	6.30 to 7.30	6.30 to 7.30	> 7.30	< 6.00	> 7.00	A (an IC50 ratio greater than or equal to 10 fold)	5.00 to 6.00
COc1cc([C@@H]2CC[C@@H](C)CN2C(=O)C(=O)Nc2cncc(C(N)=O)c2)ccn1 (racemic) [Compound 225, rac-5-{2-[(2R,5S)-2-(2-Methoxypyridin-4-yl)-5-methylpiperidin-1-yl]-2-oxoacetamido}pyridine-3-carboxamide]	6.30 to 7.30	6.30 to 7.30	6.30 to 7.30	< 6.00	> 7.00	A (an IC50 ratio greater than or equal to 10 fold)	5.00 to 6.00
C[C@@H]1CC[C@@H](c2cncc(-n3cccn3)c2)N(C(=O)C(=O)Nc2cncc(C(N)=O)c2)C1 (racemic) [Compound 226, rac-5-{2-[(2R,5S)-5-Methyl-2-[5-(1H-pyrazol-1-yl)pyridin-3-yl]piperidin-1-yl]-2-oxoacetamido}pyridine-3-carboxamide]	6.30 to 7.30	< 6.30	6.30 to 7.30	< 6.00	< 6.00	C (an IC50 ratio of less than 3 fold)	< 5.00
COc1ccc([C@@H]2CC[C@@H](C)CN2C(=O)C(=O)Nc2cncc(C(N)=O)c2)cc1 (racemic) [Compound 228, rac-5-{2-[(2R,5S)-2-(4-Methoxyphenyl)-5-methylpiperidin-1-yl]-2-oxoacetamido}pyridine-3-carboxamide]	6.30 to 7.30	6.30 to 7.30	6.30 to 7.30	< 6.00	6.00 to 7.00	A (an IC50 ratio greater than or equal to 10 fold)	5.00 to 6.00
C[C@@H]1C[C@H](c2ccccc2)N(C(=O)C(=O)Nc2cncc(C(N)=O)c2)C[C@@H]1C (racemic) [Compound 229, 5-[[2-[(2S,4S,5S)-4,5-dimethyl-2-phenyl-1-piperidyl]-2-oxo-acetyl]amino]pyridine-3-carboxamide]	< 6.30	< 6.30	6.30 to 7.30	< 6.00	< 6.00	B (an IC50 ratio greater than or equal to 3 fold but lower than 10 fold)	< 5.00
COc1ccc([C@@H]2CC[C@@H](C)CN2C(=O)C(=O)Nc2cncc(C(N)=O)c2)cc1OC (racemic) [Compound 230, rac-5-{2-[(2R,5S)-2-(3,4-Dimethoxyphenyl)-5-methylpiperidin-1-yl]-2-oxoacetamido}pyridine-3-carboxamide]	6.30 to 7.30	6.30 to 7.30	> 7.30	< 6.00	6.00 to 7.00	A (an IC50 ratio greater than or equal to 10 fold)	5.00 to 6.00
